We go through five compounds from publication PMC8586496 (International Journal for Parasitology: Drugs and Drug …, 2021).

“And” between values parts separate entries of the source, which are not always exact repeats. Equal entries are not always repeated.

For one assay, the target named is T1, Tca-Pgp-11.1 (Toxocara canis, UniProt A0A891XKB7).
T1 sequence (A0A891XKB7 1-1282): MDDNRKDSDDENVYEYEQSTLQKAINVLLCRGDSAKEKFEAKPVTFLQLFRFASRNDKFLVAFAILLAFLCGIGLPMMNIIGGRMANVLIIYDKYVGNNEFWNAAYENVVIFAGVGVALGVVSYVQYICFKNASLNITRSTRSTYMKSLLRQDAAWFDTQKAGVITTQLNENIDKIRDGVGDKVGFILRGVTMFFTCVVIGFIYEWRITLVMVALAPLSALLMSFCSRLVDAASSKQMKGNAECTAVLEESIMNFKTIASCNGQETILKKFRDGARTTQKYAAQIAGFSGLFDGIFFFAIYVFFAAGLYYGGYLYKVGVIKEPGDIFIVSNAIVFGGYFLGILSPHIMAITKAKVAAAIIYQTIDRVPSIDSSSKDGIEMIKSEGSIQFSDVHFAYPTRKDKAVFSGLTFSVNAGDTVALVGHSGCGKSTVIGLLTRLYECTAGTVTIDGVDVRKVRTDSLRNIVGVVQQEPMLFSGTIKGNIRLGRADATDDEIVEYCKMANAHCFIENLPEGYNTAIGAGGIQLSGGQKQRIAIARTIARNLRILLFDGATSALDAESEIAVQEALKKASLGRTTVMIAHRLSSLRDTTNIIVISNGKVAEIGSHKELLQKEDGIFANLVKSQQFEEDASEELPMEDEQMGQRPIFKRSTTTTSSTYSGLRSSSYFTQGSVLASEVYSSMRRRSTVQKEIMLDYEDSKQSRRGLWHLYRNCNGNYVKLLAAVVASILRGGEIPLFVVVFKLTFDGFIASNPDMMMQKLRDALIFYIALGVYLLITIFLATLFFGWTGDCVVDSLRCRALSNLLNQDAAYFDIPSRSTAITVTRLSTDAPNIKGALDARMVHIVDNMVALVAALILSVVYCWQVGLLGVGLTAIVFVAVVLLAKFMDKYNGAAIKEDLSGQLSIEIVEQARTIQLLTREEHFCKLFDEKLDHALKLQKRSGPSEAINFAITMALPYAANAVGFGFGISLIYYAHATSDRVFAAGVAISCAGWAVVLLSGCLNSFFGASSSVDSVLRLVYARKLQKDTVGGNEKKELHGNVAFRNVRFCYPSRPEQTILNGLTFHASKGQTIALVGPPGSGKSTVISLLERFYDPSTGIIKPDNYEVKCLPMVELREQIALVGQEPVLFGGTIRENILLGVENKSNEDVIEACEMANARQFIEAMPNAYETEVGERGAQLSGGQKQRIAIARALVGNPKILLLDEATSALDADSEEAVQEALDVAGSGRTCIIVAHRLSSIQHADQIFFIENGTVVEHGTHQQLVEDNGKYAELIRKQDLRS
The assay is described as follows: H33342 efflux inhibition assay. In kind it is cell-based.

Assay [1] deals with non-transfected LLC-PK1 cells. It is filed as cell-based, pig. As to conditions: possibly P-gp-independent mechanism.

The compound `CO[C@H]1C[C@H](O[C@@H]2/C(C)=C/C[C@@H]3C[C@@H](C[C@]4(CC[C@H](C)[C@@H](C5CCCCC5)O4)O3)OC(=O)[C@@H]3C=C(C)/C(=N/O)[C@H]4OC/C(=C\C=C\[C@@H]2C)[C@]43O)O[C@@H](C)[C@@H]1O` [Selamectin, selamectin] showed an IC50 against Tca-Pgp-11.1 of 1020 µM.
Same read-out and setting: the value for `COc1cc2c(cc1OC)CN(CCc1ccc(NC(=O)c3cc(OC)c(OC)cc3NC(=O)c3cnc4ccccc4c3)cc1)CC2` [Tariquidar, tariquidar] was 68 µM and 68.5 µM; that for `C/C=C/C[C@@H](C)C(=O)[C@H]1C(=O)N[C@@H](C(C)C)C(=O)N(C)CC(=O)N(C)[C@@H](CC(C)C)C(=O)N[C@@H](C(C)C)C(=O)N(C)[C@@H](CC(C)C)C(=O)N[C@@H](C)C(=O)N[C@H](C)C(=O)N(C)[C@@H](CC(C)C)C(=O)N(C)[C@@H](CC(C)C)C(=O)N(C)[C@@H](C(C)C)C(=O)N1C` [Valspodar, valspodar] was 3.01 µM.
For `COC(=O)[C@H]1[C@H]2C[C@@H]3c4[nH]c5cc(OC)ccc5c4CCN3C[C@H]2C[C@@H](OC(=O)c2cc(OC)c(OC)c(OC)c2)[C@@H]1OC` [reserpine], the “Effect on release of H33342 from non-transfected cells” value in assay [1] is “enhanced release of H33342 from non-transfected cells”.
The same measure, in the same setting: under `C=CC[C@@H]1/C=C(\C)C[C@H](C)C[C@H](OC)[C@H]2O[C@@](O)(C(=O)C(=O)N3CCCC[C@H]3C(=O)O[C@H](/C(C)=C/[C@@H]3CC[C@@H](O)[C@H](OC)C3)[C@H](C)[C@@H](O)CC1=O)[C@H](C)C[C@@H]2OC` [tacrolimus] stands “enhanced release of H33342 from non-transfected cells”.
